Measurements published in PubChem BioAssay (NCI).
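Assay format: 96-well plates, 48-hour exposure. TGI marks complete inhibition of growth.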

Columns and labels:
Assay in all cases: inhibition of tumour cell growth, NCI panel, 48 h
KM12 colon = test system: KM12 colon
ACHN renal = test system: ACHN renal
RXF 393 renal = test system: RXF 393 renal
COLO 205 colon = test system: COLO 205 colon
OVCAR-5 ovarian = test system: OVCAR-5 ovarian
MDA-MB-231 breast = test system: MDA-MB-231 breast
SF-268 CNS = test system: SF-268 CNS
M14 melanoma = test system: M14 melanoma
HT29 colon = test system: HT29 colon
SK-MEL-5 melanoma = test system: SK-MEL-5 melanoma
UO-31 renal = test system: UO-31 renal
DU-145 prostate = test system: DU-145 prostate
OVCAR-8 ovarian = test system: OVCAR-8 ovarian
K-562 leukemia = test system: K-562 leukemia
BT-549 breast = test system: BT-549 breast
NCI-H23 lung = test system: NCI-H23 lung
MOLT-4 leukemia = test system: MOLT-4 leukemia
SK-MEL-2 melanoma = test system: SK-MEL-2 melanoma
NCI-H226 lung = test system: NCI-H226 lung
786-0 renal = test system: 786-0 renal
OVCAR-4 ovarian = test system: OVCAR-4 ovarian
SW-620 colon = test system: SW-620 colon
A498 renal = test system: A498 renal
EKVX NSCLC = test system: EKVX NSCLC
OVCAR-3 ovarian = test system: OVCAR-3 ovarian
SK-OV-3 ovarian = test system: SK-OV-3 ovarian
PC-3 prostate = test system: PC-3 prostate
HL-60(TB) leukemia = test system: HL-60(TB) leukemia
SF-295 CNS = test system: SF-295 CNS
A549 NSCLC = test system: A549 NSCLC
RPMI-8226 leukemia = test system: RPMI-8226 leukemia
HCT-116 colon = test system: HCT-116 colon
SF-539 CNS = test system: SF-539 CNS
T-47D breast = test system: T-47D breast
CAKI-1 renal = test system: CAKI-1 renal
SK-MEL-28 melanoma = test system: SK-MEL-28 melanoma
LOX IMVI melanoma = test system: LOX IMVI melanoma
SNB-75 CNS = test system: SNB-75 CNS
MDA-N = test system: MDA-N
MCF7 breast = test system: MCF7 breast
TK-10 renal = test system: TK-10 renal
MALME-3M melanoma = test system: MALME-3M melanoma
NCI/ADR-RES ovarian = test system: NCI/ADR-RES ovarian
HOP-62 NSCLC = test system: HOP-62 NSCLC
SN12C renal = test system: SN12C renal
CCRF-CEM leukemia = test system: CCRF-CEM leukemia
HCT-15 colon = test system: HCT-15 colon
NCI-H460 lung = test system: NCI-H460 lung
SNB-19 CNS = test system: SNB-19 CNS
MDA-MB-435 = test system: MDA-MB-435
UACC-62 melanoma = test system: UACC-62 melanoma
HS 578T breast = test system: HS 578T breast
UACC-257 melanoma = test system: UACC-257 melanoma
U251 CNS = test system: U251 CNS
IGROV1 ovarian = test system: IGROV1 ovarian
SR leukemia = test system: SR leukemia

Measured: TGI

COC(=O)c1cc(NC(=O)c2cc(NC(=O)Cc3c[nH]c4ccccc34)cn2C)cn1C
76.3 µM: COLO 205 colon
95.4 µM: HL-60(TB) leukemia
83.5 µM: NCI-H23 lung
85.2 µM: UO-31 renal
96.2 µM: PC-3 prostate
68.1 µM: SK-MEL-2 melanoma
63.8 µM: SK-MEL-5 melanoma
78.5 µM: A498 renal
55.8 µM: HT29 colon
60.8 µM: UACC-62 melanoma
48.4 µM: RPMI-8226 leukemia
77.2 µM: MALME-3M melanoma
84.1 µM: HCT-116 colon
74.3 µM: EKVX NSCLC
77.1 µM: MDA-MB-231 breast
85.7 µM: SNB-19 CNS
92.9 µM: SNB-75 CNS
not listed: HS 578T breast | UACC-257 melanoma | U251 CNS | IGROV1 ovarian | SR leukemia
> 100 µM: all other assays above

COc1ccc(-n2c3c(c4cc(O)ccc42)Cc2ccccc2C3=O)cc1
79.7 µM: MCF7 breast
86.7 µM: SF-295 CNS
15.3 µM: PC-3 prostate
82.1 µM: OVCAR-4 ovarian
9.38 µM: RXF 393 renal
51 µM: COLO 205 colon
32.7 µM: RPMI-8226 leukemia
27.3 µM: CCRF-CEM leukemia
57 µM: SK-OV-3 ovarian
31.9 µM: SNB-75 CNS
not listed: ACHN renal | OVCAR-5 ovarian | EKVX NSCLC | T-47D breast
> 100 µM: all other assays above
